{"source": "patent US8329195B2", "about": "“Detoxified pneumococcal neuraminidase and uses thereof” (priority 2007, dated 2012)", "key": {"PAF-R": {"molecular_target": "PAF-R (Homo sapiens, UniProt P25105)", "sequence (P25105 whole entry, species assumed)": "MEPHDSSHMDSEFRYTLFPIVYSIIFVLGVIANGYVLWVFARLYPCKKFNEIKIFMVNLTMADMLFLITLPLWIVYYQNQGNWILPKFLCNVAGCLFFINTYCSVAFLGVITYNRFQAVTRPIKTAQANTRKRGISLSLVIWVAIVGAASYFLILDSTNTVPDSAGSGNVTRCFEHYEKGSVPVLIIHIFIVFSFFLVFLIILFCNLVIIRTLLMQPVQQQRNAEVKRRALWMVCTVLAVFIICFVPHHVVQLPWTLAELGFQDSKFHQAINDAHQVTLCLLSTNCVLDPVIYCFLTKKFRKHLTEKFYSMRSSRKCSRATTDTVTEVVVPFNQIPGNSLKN", "conditions": "cited from earlier work"}, "TIGR4 strain": {"tested_on": "TIGR4 strain", "test": "Attachment of TIGR4 strain to ganglioside-coated ELISA plates", "type": "binding, Streptococcus pneumoniae", "conditions": "short-term incubation with the TIGR4 strain", "description": "The ability of the TIGR4, and its nanA and nanB mutants to bind to specific gangliosides is measured. The gangliosides used include mixed gangliosides, asialo-GM1, GM1, GD1a, GD1b, GT1 (Calbiochem) and the GM3 ganglioside (Sigma) The GM3 ganglioside lacks the terminal or internal GalNAcβ1-4Gal sequence involved in pneumococcal binding and is used as a negative control. These mixed, mono-, di- or tri-sialic acid containing gangliosides bind readily to ELISA plates. […] Using ganglioside-coated plates, the ability to attach to these plates by wildtype TIGR4 strain, the stable opaque and transparent phase variants of the TIGR4 strain, the nanA, nanB, and nanA/nanB mutant strains is compared. These analyses include short-term incubation (1 hr) and extended incubations (24 hrs) on ganglioside-coated plates, Attached pneumococci are removed from the ganglioside plates by short incubation (10-15 min.) in Todd Hewitt medium containing 0.5% yeast extract followed by repeated pipetting and plating the released bacteria on blood agar plates. Alternatively 41° C. Todd Hewitt broth agar containing 0.5% yeast extract is poured on top of the attached pneumococci and the colonies are counted through the bottom of the plate. Controls include plates with no pneumococci and plates with no gangliosides but with pneumococci."}, "[1]": {"conditions": "Matsubura et al. 1999; cited from earlier work"}, "[2]": {"tested_on": "S. pneumoniae strain EF3030", "test": "GLS preincubation of S. pneumoniae strain EF3030 before nasal application to xid mice, CFU in tissues", "type": "in vivo, Streptococcus pneumoniae", "conditions": "four days after nasal application", "description": "Aliquots (3×10^7 CFUs) of S. pneumoniae were incubated for 30 minutes with 20 μg asialo-GM1 (a-GM1) or 125 μg of mixed GLSs (MG) prior to nasal application. The ON/E, OBs, brain and NW, NALT and lungs were collected four days later and analyzed for numbers of S. pneumoniae. The 0 value on the Y-axis represents the absence of detectable CFUs. Indicated are the mean+one SE of 5 mice and the P-values were obtained following statistical analysis with the Student's t-test or the Mann-Whitney two sample rank test, as appropriate for the data examined. The data are representative of two separate experiments.\nEight serial, three-fold dilutions were made of tissues and body fluids in sterile Ringer's solution and plated on blood agar plates containing […] gentamicin sulfate. The CFU were enumerated 24 hr after plating and incubation in a candle jar. The results were expressed as CFUs/organ, per NW or per ml of blood.\nTo block GLS binding sites, 3×10^7 CFU of S. pneumoniae strain EF3030 were incubated for 30 min on ice with either 20 μg asialo-GM1 from human brain or 125 μg of mixed GLSs (18% GM1, 55% GD1a, 15% GD1b, 10% GT1b, 2% other GLSs) from bovine brain (Calbiochem-Novabiochem Corporation, Inc., La Jolla, Calif.). GLSs were dissolved in PBS and extensively mixed a day prior to use. […] Tissues were analyzed for CPUs four days later."}}, "note": "pIC50: −log10 of the molar value.", "data": [{"molecule": "CCCCCCCCOc1ccccc1C(=O)Nc1ccc(C(=O)OCC[N+](C)(CC)CC)cc1", "note": "[octylonium bromide]", "values": [{"measurement": "binding to the PAF-R", "setting": "PAF-R", "result": "binds with high affinity"}]}, {"molecule": "GM1", "values": [{"measurement": "binding of pneumococci to coated plates", "setting": "TIGR4 strain", "result": "not"}]}, {"molecule": "GM3 [GM-3]", "values": [{"measurement": "binding of pneumococci to coated plates", "setting": "TIGR4 strain", "result": "not"}]}, {"molecule": "VWRLLAPPFSNRLLP [GM1-binding peptide]", "values": [{"measurement": "pIC50", "setting": "[1]", "result": 6.00}, {"measurement": "affinity for GM1", "setting": "[1]", "result": "10^10 M^−1"}]}, {"molecule": "asialo-GM1", "values": [{"measurement": "reduced colonization in CNS", "setting": "[2]; CNS", "result": 25, "unit": "fold"}, {"measurement": "reduced colonization in lungs", "setting": "[2]; lungs", "result": 63, "unit": "fold"}, {"measurement": "binding of pneumococci to coated plates", "setting": "TIGR4 strain", "result": "bind and attachment"}]}]}
